Experimental data taken from patent US11718604B2, “4-amino-6-(1,3-benzodioxole)picolinates and their use as herbicides” (Dow AgroSciences LLC, priority 2018, dated 2023).

Key:
Format in all cases: in vivo
[1] = tested on: ABUTH: velvetleaf (Abutilon theophrasti); assay: Post-emergent herbicidal test, velvetleaf; settings: post-emergence, 336 h, 14 days after application, read-out: Visual Growth Reduction (%) 14 Days After Application ABUTH
Procedure: (§1) Post-Emergent Test: Seeds or nutlets of the desired test plant species were planted in Sun Gro Metro-Mix® 360 planting mixture, which typically has a pH of 6.0 to 6.8 and an organic matter content of about 30 percent, in plastic pots with a surface area of 64 square centimeters (cm^2). When required to ensure good germination and healthy plants, a fungicide treatment and/or other chemical or physical treatment was applied. The plants were grown for 7-21 d in a greenhouse with an approximate 15 h photoperiod which was maintained at about 23-29° C. during the day and 22-28° C. during the night. Nutrients and water were added on a regular basis and supplemental lighting was provided with overhead metal halide 1000-Watt lamps as necessary. The plants were employed for testing when they reached the first or second true leaf stage.
(§2) A weighed amount, determined by the highest rate to be tested, of each test compound was placed in a 25 mL glass vial and was dissolved in 4 mL of a 97:3 v/v mixture of acetone and DMSO to obtain concentrated stock solutions. […] The concentrated stock solutions obtained were diluted with 20 mL of an aqueous mixture containing acetone, water, isopropyl alcohol, DMSO, Atplus 411F crop oil concentrate, and Triton® X-155 surfactant in a 48.5:39:10:1.5:1.0:0.02 v/v ratio to obtain spray solutions containing the highest application rates. Additional application rates were obtained by serial dilution of 12 mL of the high rate solution into a solution containing 2 mL of a 97:3 v/v mixture of acetone and DMSO and 10 mL of an aqueous mixture containing acetone, water, isopropyl alcohol, DMSO, Atplus 411F crop oil concentrate, and Triton X-155 surfactant in a 48.5:39:10:1.5:1.0:0.02 v/v ratio to obtain ½×, ¼×, ⅛× and 1/16× rates of the high rate. Compound requirements are based upon a 12 mL application volume at a rate of 187 liters per hectare (L/ha). Formulated compounds were applied to the plant material with an overhead Mandel track sprayer equipped with 8002E nozzles calibrated to deliver 187 L/ha over an application area of 0.503 square meters at a spray height of 18 inches (43 cm) above the average plant canopy height. Control plants were sprayed in the same manner with the solvent blank.
(§3) The treated plants and control plants were placed in a greenhouse as described above and watered by subirrigation to prevent wash-off of the test compounds. After 14 d, the condition of the test plants as compared with that of the untreated plants was determined visually and scored on a scale of 0 to 100 percent where 0 corresponds to no injury and 100 corresponds to complete kill.

[2] = tested on: VIOTR: wild violet (Viola tricolor); assay: Post-emergent herbicidal test, wild violet; settings: post-emergence, 336 h, 14 days after application, read-out: Visual Growth Reduction (%) 14 Days After Application VIOTR
Procedure: as §1, §2, §3

[3] = tested on: SETFA: giant foxtail (Setaria faberi); assay: Post-emergent herbicidal test, giant foxtail; settings: post-emergence, 336 h, 14 days after application, read-out: Visual Growth Reduction (%) 14 Days After Application SETFA
Procedure: as §1, §2, §3

[4] = tested on: CYPES: yellow nutsedge (Cyperus esculentus); assay: Post-emergent herbicidal test, yellow nutsedge; settings: post-emergence, 336 h, 14 days after application, read-out: Visual Growth Reduction (%) 14 Days After Application CYPES
Procedure: as §1, §2, §3

[5] = tested on: DIGSA: large crabgrass (Digitaria sanguinalis); assay: Post-emergent herbicidal test, large crabgrass; settings: post-emergence, 336 h, 14 days after application, read-out: Visual Growth Reduction (%) 14 Days After Application DIGSA
Procedure: as §1, §2, §3

[6] = tested on: EPHHL: wild poinsettia (Euphorbia heterophylla); assay: Post-emergent herbicidal test, wild poinsettia; settings: post-emergence, 336 h, 14 days after application, read-out: Visual Growth Reduction (%) 14 Days After Application EPHHL
Procedure: as §1, §2, §3

[7] = tested on: ECHCG: barnyardgrass (Echinochloa crus-galli); assay: Post-emergent herbicidal test, barnyardgrass; settings: post-emergence, 336 h, 14 days after application, read-out: Visual Growth Reduction (%) 14 Days After Application ECHCG
Procedure: as §1, §2, §3

[8] = tested on: SORVU: shattercane (Sorghum bicolor); assay: Post-emergent herbicidal test, shattercane; settings: post-emergence, 336 h, 14 days after application, read-out: Visual Growth Reduction (%) 14 Days After Application SORVU
Procedure: as §1, §2, §3

[9] = tested on: BRSNN: oilseed rape, canola (Brassica napus); assay: Post-emergent herbicidal test, oilseed rape; settings: post-emergence, 336 h, 14 days after application, read-out: Visual Growth Reduction (%) 14 Days After Application BRSNN
Procedure: as §1, §2, §3

[10] = tested on: IPOHE: ivyleaf morningglory (Ipomoea hederacea); assay: Post-emergent herbicidal test, ivyleaf morningglory; settings: post-emergence, 336 h, 14 days after application, read-out: Visual Growth Reduction (%) 14 Days After Application IPOHE
Procedure: as §1, §2, §3

[11] = tested on: CIRAR: Canada thistle (Cirsium arvense); assay: Post-emergent herbicidal test, Canada thistle; settings: post-emergence, 336 h, 14 days after application, read-out: Visual Growth Reduction (%) 14 Days After Application CIRAR
Procedure: as §1, §2, §3

## COC(=O)c1nc(-c2ccc(I)c3c2OC(F)(F)O3)c(F)c(N)c1Cl [Compound 10]
[1]; 17.5 g ai/ha
  pest or weed control at 17.5 g/ha: 65%
[1]; 35 g ai/ha
  pest or weed control at 35 g/ha: 70%
[1]; 70 g ai/ha
  pest or weed control at 70 g/ha: 75%
[1]; 140 g ai/ha
  pest or weed control at 140 g/ha: 75%
[2]; 17.5 g ai/ha
  pest or weed control at 17.5 g/ha: 0%
[2]; 35 g ai/ha
  pest or weed control at 35 g/ha: 0%
[2]; 70 g ai/ha
  pest or weed control at 70 g/ha: 0%
[2]; 140 g ai/ha
  pest or weed control at 140 g/ha: 0%
[3]; 17.5 g ai/ha
  pest or weed control at 17.5 g/ha: 0%
[3]; 35 g ai/ha
  pest or weed control at 35 g/ha: 0%
[3]; 70 g ai/ha
  pest or weed control at 70 g/ha: 0%
[3]; 140 g ai/ha
  pest or weed control at 140 g/ha: 0%
[4]; 17.5 g ai/ha
  pest or weed control at 17.5 g/ha: 0%
[4]; 35 g ai/ha
  pest or weed control at 35 g/ha: 0%
[4]; 70 g ai/ha
  pest or weed control at 70 g/ha: 0%
[4]; 140 g ai/ha
  pest or weed control at 140 g/ha: 0%
[5]; 17.5 g ai/ha
  pest or weed control at 17.5 g/ha: 0%
[5]; 35 g ai/ha
  pest or weed control at 35 g/ha: 0%
[5]; 70 g ai/ha
  pest or weed control at 70 g/ha: 0%
[5]; 140 g ai/ha
  pest or weed control at 140 g/ha: 0%
[6]; 17.5 g ai/ha
  pest or weed control at 17.5 g/ha: 0%
[6]; 35 g ai/ha
  pest or weed control at 35 g/ha: 0%
[6]; 70 g ai/ha
  pest or weed control at 70 g/ha: 0%
[6]; 140 g ai/ha
  pest or weed control at 140 g/ha: 0%
[7]; 17.5 g ai/ha
  pest or weed control at 17.5 g/ha: 0%
[7]; 35 g ai/ha
  pest or weed control at 35 g/ha: 0%
[7]; 70 g ai/ha
  pest or weed control at 70 g/ha: 0%
[7]; 140 g ai/ha
  pest or weed control at 140 g/ha: 0%
[8]; 17.5 g ai/ha
  pest or weed control at 17.5 g/ha: 0%
[8]; 35 g ai/ha
  pest or weed control at 35 g/ha: 0%
[8]; 70 g ai/ha
  pest or weed control at 70 g/ha: 0%
[8]; 140 g ai/ha
  pest or weed control at 140 g/ha: 0%
[9]; 17.5 g ai/ha
  pest or weed control at 17.5 g/ha: 50%
[9]; 35 g ai/ha
  pest or weed control at 35 g/ha: 60%
[9]; 70 g ai/ha
  pest or weed control at 70 g/ha: 65%
[9]; 140 g ai/ha
  pest or weed control at 140 g/ha: 70%
[10]; 17.5 g ai/ha
  pest or weed control at 17.5 g/ha: 0%
[10]; 35 g ai/ha
  pest or weed control at 35 g/ha: 0%
[10]; 70 g ai/ha
  pest or weed control at 70 g/ha: 0%
[10]; 140 g ai/ha
  pest or weed control at 140 g/ha: 0%
[11]; 17.5 g ai/ha
  pest or weed control at 17.5 g/ha: 60%
[11]; 35 g ai/ha
  pest or weed control at 35 g/ha: 70%
[11]; 70 g ai/ha
  pest or weed control at 70 g/ha: 70%
[11]; 140 g ai/ha
  pest or weed control at 140 g/ha: 75%
